# Like-named read-outs stand apart in the source and are kept apart here.
# Experiments:
# [1] = test system: Enterococcus faecium ATCC700221 (VRE); assay: MIC/FIC/FICI determination, MHB broth microdilution (CLSI M07-A9); assay type: cell-based; conditions: single compound
# [2] = test system: Staph. aureus ATCC29213 (semi-resistant); assay: MIC determination, MHB broth microdilution (CLSI M07-A9); assay type: cell-based; conditions: Staphylococcus aureus
# [3] = test system: Staph. aureus ATCC700787 (MRSA/VISA); assay: MIC/FIC/FICI determination, MHB broth microdilution (CLSI M07-A9); assay type: cell-based; conditions: Staphylococcus aureus
# [4] = test system: VRSA (vancomycin-resistant Staphylococcus aureus); conditions: cited from earlier work
# [5] = rat, in vivo; cited from earlier work
# [6] = rat, in vivo, topical or ocular; cited from earlier work
molecule,measurement,setting,value
CCCCCCCCCC(=O)N[C@@H](Cc1c[nH]c2ccccc12)C(=O)N[C@H](CC(N)=O)C(=O)N[C@@H](CC(=O)O)C(=O)N[C@@H]1C(=O)NCC(=O)N[C@@H](CCCN)C(=O)N[C@@H](CC(=O)O)C(=O)N[C@H](C)C(=O)N[C@@H](CC(=O)O)C(=O)NCC(=O)N[C@H](CO)C(=O)N[C@@H]([C@H](C)CC(=O)O)C(=O)N[C@@H](CC(=O)c2ccccc2N)C(=O)O[C@@H]1C [daptomycin],MIC,[1]; 24 hours exposure,8 µg/mL
same,MIC,[1]; 48 hours exposure,8 µg/mL
same,MIC,"[2]; ATCC29213, single compound, 24 hours exposure, read-out: MIC",2 µg/mL
same,MIC,"[2]; ATCC29213, single compound, 48 hours exposure, read-out: MIC",2 µg/mL
same,MIC,"[3]; single compound, 24 hours exposure, read-out: MIC",4 µg/mL
same,MIC,"[3]; single compound, 48 hours exposure, read-out: MIC",8 µg/mL
CN[C@H](CC(C)C)C(=O)N[C@H]1C(=O)N[C@@H](CC(N)=O)C(=O)N[C@H]2C(=O)N[C@H]3C(=O)N[C@H](C(=O)N[C@H](C(=O)O)c4cc(O)cc(O)c4-c4cc3ccc4O)[C@H](O)c3ccc(c(Cl)c3)Oc3cc2cc(c3O[C@@H]2O[C@H](CO)[C@@H](O)[C@H](O)[C@H]2O[C@H]2C[C@](C)(N)[C@H](O)[C@H](C)O2)Oc2ccc(cc2Cl)[C@H]1O [vancomycin],MIC,"[2]; ATCC29213, 24 h",2 µg/mL
same,MIC,"[2]; ATCC29213, 48 h",2 µg/mL
same,MIC,[3]; 24 h,8 µg/mL
same,MIC,[3]; 48 h,8 µg/mL
same,MIC for vancomycin,[4],≥ 16 µg/mL
rhamnolipids,acute oral toxicity LD50,[5],> 5000 mg/kg
same,acute dermal toxicity LD50,[6],> 5000 mg/kg

# Reference: patent US20140294925A1 (priority 2013, published 2014)
